# Key:
# rat TRPA1 gene = assay: Suppression of rat TRPA1 gene expression by siRNA in RIN14B cells (real time PCR); format: cell-based; settings: siRNA 10 nM, 2 days
# Description: The expression of the TRPA1 gene in rat tissues, a rat EC cell fraction and RIN14B cells was analyzed by real time PCR using a sequence detector (PRISM7900; Applied Biosystems). With the first strand cDNA derived from rat tissue, rat EC cells or RIN14B cells, obtained in the aforementioned Example, as the template, using a fluorescent reagent (SYBR Green PCR Core Reagents Kit; Applied Biosystems), PCR was performed. The aforementioned PCR was performed using an oligonucleotide consisting of the base sequence shown by SEQ ID NO:13 as a sense primer, and an oligonucleotide consisting of the base sequence shown by SEQ ID NO:14 as an antisense primer; first, thermal denaturation was performed at 95° C. (10 minutes), after which a cycle consisting of heat treatment at 95° C. (15 seconds)/59° C. (1 minute) was repeated 45 times. Each primer is a sequence specific for a gene consisting of the base sequence shown by SEQ ID NO:5. […]
# RIN14B cells were sown to a 60 mm Petri dish at 6×10^5 cells and cultured for 1 day. After various sequences of siRNA for rat TRPA1 (10 nM), designed using the siRNA design system siDirect (RNAi), were introduced using a transformation reagent (LIPOFECTAMINE2000; Invitrogen Japan K.K.), the RIN14B cells were further cultured for 2 days, and the expression level of the rat TRPA1 gene was measured. […]
# RIN14B cells [1] = assay: Serotonin secretion from RIN14B cells (immunoassay); format: cell-based, rat; settings: siRNA-introduced RIN14B; listed as #971 siRNA
# Description: After RIN14B cells in culture in a Petri dish were detached using a PBS containing 1 mM EDTA, they were sown to a 96-well plate and cultured for 2 days. The medium used was RPMI1640 (Invitrogen Japan K.K.) supplemented with 10% fetal bovine serum (ICN), 100 U/ml penicillin, and 100 μg/ml streptomycin. After the cells were once washed with Hanks' Balanced Salt Solutions (HBSS, Invitrogen) supplemented with 0.1% BSA and 10 μM fluoxetine (TOCRIS), each TRPA1 activator, previously diluted/prepared with the above-described HBSS, was added, and the RIN14B cells were cultured at 37° C. in the presence of 5% CO2 for 20 minutes. After the cultivation, the cell supernatant was recovered, and stored under freezing. The serotonin content in the supernatant was measured using a commercially available serotonin immunoassay kit (Beckman).
# RIN14B cells [2] = assay: Channel activity in RIN14B cells using calcium-sensitive fluorescent reagent (FLIPR); format: cell-based, rat; settings: siRNA-introduced RIN14B; allyl isothiocyanate 300 μM
# Description: RIN14B cells (5×10^4 cells), wherein the expression of TRPA1 was confirmed in Example 10, were incubated in the presence of a calcium-sensitive fluorescent reagent (Fluo3-AM; DOJINDO) at 37° C. for 1 hour to thereby incorporate the calcium-sensitive fluorescent reagent in the cells, after which the cells were washed with physiological saline to remove the calcium-sensitive fluorescent reagent that had not been incorporated in the cells. To the cells obtained, physiological saline supplemented with allyl isothiocyanate, cinnamic aldehyde, or acrolein was added; the fluorescence emitted by the cells was measured over time. The above-described measurements were performed using an automated fluorescence detection apparatus (FLIPR; Molecular Device). […] Ruthenium Red was added concurrently and a measurement was performed to determine whether or not calcium inflow in the cells was be inhibited.
substance,measurement,setting,value
"#971: a rat TRPA1-specific siRNA (sense strand SEQ ID NO:15, antisense strand SEQ ID NO:16) (sense CUGGCAGACUACCUAAUUUCA; antisense AAAUUAGGUAGUCUGCCAGGU; listed as RNA, chemistry not given here)",expression level of the rat TRPA1 gene,rat TRPA1 gene,a reduction in the expression level of the rat TRPA1 was observed
same,serotonin secretion increasing activity of cinnamic aldehyde in siRNA-introduced RIN14B,RIN14B cells [1],suppressed cinnamic aldehyde-induced serotonin release
same,suppression of intracellular calcium inflow activity of allyl isothiocyanate,RIN14B cells [2],67.3%

# Source: patent publication US8034574B2, “Screening method for prokinetic agent” (Astellas Pharma Inc., priority 2006, dated 2011)
